Assays:
human hepatocytes = test: Metabolic stability in Hμrel human hepatocyte co-culture assay; type: in vitro ADME; conditions: for Metabolic turnover: human hepatocytes
human plasma protein = test: Plasma binding of 5-MIAA; type: in vitro ADME; conditions: estimated from fu and glomerular filtration rate 90-120 ml/min
[1] = rat; cited from earlier work
[2] = Pharmacokinetics of 5-MeO-DMT and bufotenine after inhalation; type: in vivo, human
patients with PPD = conditions: cited from earlier work

5-Methoxyindole acetic acid [5-Methoxyindole acetic acid (5-MIAA)]
Metabolic turnover (human hepatocytes): low metabolic turnover | Remaining abundance after 72 h (human hepatocytes; in the presence of hepatocytes, 1 and 10 μM): 75-82% | Disappearance with stromal cell controls (human hepatocytes): no disappearance | Time until removed from circulation for urinary excretion (human plasma protein): 1 to 2 h

COc1ccc2[nH]cc(CC[N+](C)(C)[O-])c2c1 [5-MeO-DMT-N-oxide]
Excretion [1]: rapid excretion

COc1ccc2[nH]cc(CCO)c2c1 [5-Methoxyindole-3-ethanol]
Relative LC/MS peak area remaining (human hepatocytes; 1 μM Stromal cells, 4 h): 97% | Relative LC/MS peak area remaining (human hepatocytes; 1 μM Stromal cells, 8 h): 107% | Relative LC/MS peak area remaining (human hepatocytes; 1 μM Stromal cells, 24 h): 94% | Relative LC/MS peak area remaining (human hepatocytes; 1 μM Stromal cells, 48 h): 102% | Relative LC/MS peak area remaining (human hepatocytes; 1 μM Stromal cells, 72 h): 104% | Relative LC/MS peak area remaining (human hepatocytes; 10 μM Stromal cells, 4 h): 99% | Relative LC/MS peak area remaining (human hepatocytes; 10 μM Stromal cells, 8 h): 105% | Relative LC/MS peak area remaining (human hepatocytes; 10 μM Stromal cells, 24 h): 86% | Relative LC/MS peak area remaining (human hepatocytes; 10 μM Stromal cells, 48 h): 98% | Relative LC/MS peak area remaining (human hepatocytes; 10 μM Stromal cells, 72 h): 104% | Metabolic turnover (human hepatocytes): high metabolic turnover | Disappearance with stromal cell controls (human hepatocytes): no disappearance

CN(C)CCc1c[nH]c2ccc(O)cc12 [Bufotenine (5-OH-DMT), Bufotenine]
Detection of bufotenine in human serum ([2]; 15 minutes after administration of 5-MeO-DMT): In no case is it detected | Detection of bufotenine in human serum ([2]; after administration of 5-MeO-DMT): barely detected | Samples with bufotenine concentration above LLOQ (25 pg/ml) ([2]; after inhaled 5-MeO-DMT): Only in few samples

CC(=O)[C@H]1CC[C@H]2[C@@H]3CC[C@H]4C[C@H](O)CC[C@]4(C)[C@H]3CC[C@]12C [brexanolone]
HAM-D scores (patients with PPD; one phase 3 trial, 30 days after initiation of infusion): significantly reduced | Efficacy (HAM-D) (patients with PPD; other phase 3 trial): failed to show efficacy beyond 7 days
